{"source": "paper PMC10544575", "about": "“Inhibitory mechanism of vortioxetine on CYP450 enzymes in human and rat liver microsomes” (Frontiers in Pharmacology, 2023)", "type_in_all_cases": "in vitro ADME", "key": {"[1]": {"target": "CYP2D6 (Homo sapiens, UniProt P10635)", "sequence (P10635 whole entry)": "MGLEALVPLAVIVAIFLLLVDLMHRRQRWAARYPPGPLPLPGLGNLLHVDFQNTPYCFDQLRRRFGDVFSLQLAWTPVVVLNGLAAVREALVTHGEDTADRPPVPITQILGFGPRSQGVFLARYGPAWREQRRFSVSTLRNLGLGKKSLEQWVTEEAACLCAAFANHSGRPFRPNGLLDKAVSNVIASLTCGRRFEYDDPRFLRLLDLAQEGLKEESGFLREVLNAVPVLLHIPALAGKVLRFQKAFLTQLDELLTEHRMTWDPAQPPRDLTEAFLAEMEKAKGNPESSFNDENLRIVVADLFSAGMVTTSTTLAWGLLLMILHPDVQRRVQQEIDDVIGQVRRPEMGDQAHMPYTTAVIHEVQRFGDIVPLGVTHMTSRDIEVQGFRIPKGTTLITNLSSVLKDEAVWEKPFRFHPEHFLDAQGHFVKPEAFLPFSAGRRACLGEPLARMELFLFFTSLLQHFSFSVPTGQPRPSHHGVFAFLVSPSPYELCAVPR", "assay": "Reversible inhibition kinetics (Lineweaver-Burk), CYP2D6 in HLMs", "parameters": "0.20 mg/mL HLMs; from tissue; host or cells: human liver microsomes", "conditions": "dextromethorphan", "description": "(§1) The components of the incubation system were as follows: 0.20 mg/mL HLMs or 0.20 mg/mL RLMs, 0.1 M Tris-HCl, vortioxetine, and the probe substrates of each enzyme. In the study of Km’s (Michaelis–Menten constant) experiment, midazolam (1, 2, 5, 10, 20, 50 and 100 μM in HLMs and RLMs) corresponded to CYP3A4/3A; bupropion (10, 20, 50, 100, 200, 500, 1,000 and 2000 μM in HLMs; 1, 2, 5, 10, 20, 50, 100 and 200 μM in RLMs) corresponded to CYP2B6/2B; amodiaquine (5, 10, 20, 50, 100 and 200 μM in HLMs; 10, 20, 50, 100, 200, 500 μM in RLMs) corresponded to CYP2C8/CYP2C-1; losartan (1, 2, 5, 10, 20, 50, 100, 200 μM in HLMs; 10, 20, 50, 100, 200, 500 and 1,000 μM in RLMs) corresponded to CYP2C9/CYP2C-2; mephenytoin (20, 50, 100, 200, 500 and 1,000 μM in HLMs; 5, 10, 20, 50, 100, 200, 500 and 1,000 μM in RLMs) corresponded to CYP2C19/CYP2C-3; and dextromethorphan (1, 2, 5, 10, 20, 50 and 100 μM in HLMs and RLMs) corresponded to CYP2D6/CYP2D. […]\n(§2) All experiments results were detected by UPLC-MS/MS, which equipped with a Waters Acquity UPLC system (Milford, MA, United States) and a Waters Xevo TQ-S triple quadrupole tandem mass spectrometer with an electrospray ionization source (Milford, MA, United States). […]\n(§3) IC50 values and enzyme kinetic parameters were calculated by Graphpad Prism 6.0 (GraphPad software Inc., CA, United States). […] Data for each experiment were expressed as mean ± SD (n = 3)."}, "[2]": {"target": "T1, CYP2C19 (Homo sapiens, UniProt P33261)", "T1 sequence (P33261 whole entry)": "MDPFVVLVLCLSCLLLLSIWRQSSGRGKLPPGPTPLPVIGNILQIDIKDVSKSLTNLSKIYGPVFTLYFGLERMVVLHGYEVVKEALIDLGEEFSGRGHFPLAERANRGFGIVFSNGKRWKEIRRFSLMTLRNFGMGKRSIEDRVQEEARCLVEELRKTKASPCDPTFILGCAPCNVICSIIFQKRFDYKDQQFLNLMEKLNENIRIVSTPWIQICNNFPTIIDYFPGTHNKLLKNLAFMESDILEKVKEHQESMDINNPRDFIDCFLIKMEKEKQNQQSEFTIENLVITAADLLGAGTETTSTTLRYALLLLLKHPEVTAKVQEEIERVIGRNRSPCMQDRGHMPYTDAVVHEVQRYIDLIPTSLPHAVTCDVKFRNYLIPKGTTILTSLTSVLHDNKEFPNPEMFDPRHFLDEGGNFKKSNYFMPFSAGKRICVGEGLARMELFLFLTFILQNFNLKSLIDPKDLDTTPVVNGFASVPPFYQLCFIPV", "assay": "IC50-shift experiment, CYP2C19 in HLMs", "parameters": "0.20 mg/mL HLMs or 0.20 mg/mL RLMs; from tissue; host or cells: human liver microsomes", "conditions": "for IC50: mephenytoin 90 μM", "description": "The components of the incubation system were as follows: 0.20 mg/mL HLMs or 0.20 mg/mL RLMs, 0.1 M Tris-HCl, vortioxetine, and the probe substrates of each enzyme. In the study of Km’s (Michaelis–Menten constant) experiment, midazolam (1, 2, 5, 10, 20, 50 and 100 μM in HLMs and RLMs) corresponded to CYP3A4/3A; bupropion (10, 20, 50, 100, 200, 500, 1,000 and 2000 μM in HLMs; 1, 2, 5, 10, 20, 50, 100 and 200 μM in RLMs) corresponded to CYP2B6/2B; amodiaquine (5, 10, 20, 50, 100 and 200 μM in HLMs; 10, 20, 50, 100, 200, 500 μM in RLMs) corresponded to CYP2C8/CYP2C-1; losartan (1, 2, 5, 10, 20, 50, 100, 200 μM in HLMs; 10, 20, 50, 100, 200, 500 and 1,000 μM in RLMs) corresponded to CYP2C9/CYP2C-2; mephenytoin (20, 50, 100, 200, 500 and 1,000 μM in HLMs; 5, 10, 20, 50, 100, 200, 500 and 1,000 μM in RLMs) corresponded to CYP2C19/CYP2C-3; and dextromethorphan (1, 2, 5, 10, 20, 50 and 100 μM in HLMs and RLMs) corresponded to CYP2D6/CYP2D. After 5.0 min of preincubation in the shaking water bath, the reaction was started with the addition of 1.0 mM NADPH. The incubated temperature at 37°C for 30 min. After the incubation, the enzyme reaction was stopped by cooling at −80°C, and 200 μL of acetonitrile and 20 μL of internal standard diazepam (200 ng/mL) were added for protein precipitation. The solution was fully vortexed and centrifuged at 13,000 × rpm for 10 min, and the supernatant was collected for data analysis by UPLC-MS/MS.\nIC50-shift was used to investigate whether the drug produced time-dependent inhibition (TDI) of the enzyme. […] The above mixture was then incubated for another 30 min. During the experiment, the individual substrates midazolam (4 μM), bupropion (40 μM), amodiaquine (3 μM), losartan (8 μM), mephenytoin (90 μM), and dextromethorphan (10 μM) were determined with vortioxetine IC50-shift in HLMs. […] Other experimental conditions were the same as above.\nAll experiments results were detected by UPLC-MS/MS, which equipped with a Waters Acquity UPLC system (Milford, MA, United States) and a Waters Xevo TQ-S triple quadrupole tandem mass spectrometer with an electrospray ionization source (Milford, MA, United States). The chromatographic separation was performed on a Waters ACQUITY UPLC BEH C18 column (2.1 × 50 mm, 1.7 μm, Waters Corp.) at 40°C. The mobile phase was consisted of acetonitrile (A) and 0.1% formic acid in water (B). The gradient elution at a flow rate of 0.4 mL/min was conducted as follows: 0–0.5 min, 10% A; 0.5–1.0 min, 10%–90% A; 1.0–2.0 min, 90% A; 2.0–2.1 min, 90%–10% A, and 2.1–3.0 min, 10% A. The relevant analysis parameters were shown in Table 1.\nas §3"}, "[3]": {"system": "CYP2D", "assay": "IC50 of vortioxetine on CYP2D (dextromethorphan) in RLMs", "conditions": "rat, rat liver microsomes, probe dextromethorphan", "description": "as §1, §2, §3"}, "[4]": {"system": "CYP2B", "assay": "IC50-shift experiment, CYP2B in RLMs", "conditions": "rat, rat liver microsomes, probe bupropion; for IC50 at 30 min: bupropion 20 μM"}, "[5]": {"target": "T1, CYP2C19", "assay": "Reversible inhibition kinetics (Lineweaver-Burk), CYP2C19 in HLMs", "parameters": "0.20 mg/mL HLMs; from tissue; host or cells: human liver microsomes", "conditions": "mephenytoin", "description": "as §1, §2, §3"}, "[6]": {"target": "CYP3A4 (Homo sapiens, UniProt P08684)", "sequence (P08684 whole entry)": "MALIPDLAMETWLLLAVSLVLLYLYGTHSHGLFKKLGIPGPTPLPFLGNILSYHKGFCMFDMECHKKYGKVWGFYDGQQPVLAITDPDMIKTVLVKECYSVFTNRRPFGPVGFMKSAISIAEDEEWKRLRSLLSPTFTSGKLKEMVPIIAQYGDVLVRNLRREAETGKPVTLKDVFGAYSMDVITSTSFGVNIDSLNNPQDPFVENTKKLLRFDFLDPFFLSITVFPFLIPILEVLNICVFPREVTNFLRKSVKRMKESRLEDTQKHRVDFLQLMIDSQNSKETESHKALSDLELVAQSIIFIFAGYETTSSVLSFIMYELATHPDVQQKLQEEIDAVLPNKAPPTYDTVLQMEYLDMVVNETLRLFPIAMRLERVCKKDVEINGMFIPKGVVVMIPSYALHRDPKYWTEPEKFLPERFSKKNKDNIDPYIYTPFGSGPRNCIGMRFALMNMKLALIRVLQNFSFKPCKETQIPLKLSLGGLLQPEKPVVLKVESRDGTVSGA", "assay": "IC50 of vortioxetine on CYP3A4 (midazolam) in HLMs", "parameters": "0.20 mg/mL HLMs; from tissue; host or cells: human liver microsomes", "description": "as §1, §2, §3"}}, "note": "“Also recorded” adds a separate entry of the source. Read-outs that look alike come from different tables or passages of the source."}
{"smiles": "Cc1ccc(Sc2ccccc2N2CCNCC2)c(C)c1", "note": "[vortioxetine]", "values": [{"measurement": "Ki", "setting": "[1]", "value": 9.37, "unit": "µM"}, {"measurement": "Inhibition type", "setting": "[1]; Lineweaver-Burk plot", "value": "competitively inhibited; also recorded: competitive inhibition"}, {"measurement": "IC50", "setting": "[2]; CYP2C19, 30 min preincubation with 1.0 mM NADPH", "value": 2.83, "unit": "µM"}, {"measurement": "IC50", "setting": "[2]; CYP2C19, 30 min preincubation without NADPH", "value": 5.88, "unit": "µM"}, {"measurement": "IC50 shift at 30 min", "setting": "[2]; human, human liver microsomes, probe mephenytoin (90 μM), CYP2C19, ratio IC50 (−) NADPH to IC50 (+) NADPH, read-out: IC50 fold shift", "value": 2.08}, {"measurement": "activity of CYP2C19 with the NADPH", "setting": "[2]; preincubation with NADPH vs without", "value": "significantly reduced"}, {"measurement": "IC50 at 30 min", "setting": "[3]; RLMs 0.20 mg/mL, dextromethorphan at Km, 37°C, 30 min, read-out: IC50", "value": 15.7, "unit": "µM"}, {"measurement": "IC50 at 30 min", "setting": "[3]; inhibitory effect (strength judged by IC50), RLMs", "value": "> 10", "unit": "µM"}, {"measurement": "IC50 at 30 min", "setting": "[4]; 30 min preincubation with 1.0 mM NADPH", "value": 5.3, "unit": "µM"}, {"measurement": "IC50 at 30 min", "setting": "[4]; 30 min preincubation without NADPH", "value": 10.1, "unit": "µM"}, {"measurement": "IC50 shift at 30 min", "setting": "[4]; ratio IC50 (−) NADPH to IC50 (+) NADPH, read-out: IC50 fold shift", "value": 1.91}, {"measurement": "Ki", "setting": "[5]", "value": 2170, "unit": "nM"}, {"measurement": "Inhibition type", "setting": "[5]; Lineweaver-Burk plot", "value": "competitively inhibited; also recorded: competitive inhibition"}, {"measurement": "IC50", "setting": "[6]; HLMs 0.20 mg/mL, midazolam at Km, 37°C, 30 min, read-out: IC50", "value": 9.31, "unit": "µM"}, {"measurement": "IC50", "setting": "[6]; inhibitory effect (strength judged by IC50), HLMs", "value": "1 to 10", "unit": "µM"}]}
